{
  "source": "patent US9751851B2",
  "about": "“Molecules and compositions that inhibit gram negative bacteria and their uses” (THE TRUSTEES OF PRINCETON UNIVERSITY, priority 2013, dated 2017)",
  "key": {"P. aeruginosa PA14 [1]": {"system": "P. aeruginosa PA14", "assay": "C. elegans fast killing infection assay", "assay_type": "in vivo", "method": "Methods. C. elegans fast killing assays were conducted with 90 wild-type N2 worms for each condition (30 worms/replicate, 3 replicates performed). C. elegans were propagated on NGM plates prior to eggs being harvested from gravid adults using a standard bleaching protocol (30 mL 5% bleach, 15 mL 5 M KOH, 55 mL dH2O). Harvested eggs were placed on lawns of fresh E. coli HB101 and allowed to grow for 48 hr (to reach the L4 stage) at 20° C. prior to being moved to lawns of P. aeruginosa and placed at 25° C. on sorbitol, glucose, cholesterol plates. Nematodes were scored for survival every hr for 5 hr and again at 24 hr. The % living worms was calculated in triplicate for each time point. 50 μM mBTL or an equivalent volume of DMSO was added to plates and to the bacterial cultures during growth."}, "RhlR": {"target": "T1, RhlR (Pseudomonas aeruginosa, UniProt P54292)", "T1 construct": "expressed in transfected cells; host or cells: E. coli BL21-Gold (DE3) carrying pET23b-rhlR", "T1 sequence (P54292 whole entry)": "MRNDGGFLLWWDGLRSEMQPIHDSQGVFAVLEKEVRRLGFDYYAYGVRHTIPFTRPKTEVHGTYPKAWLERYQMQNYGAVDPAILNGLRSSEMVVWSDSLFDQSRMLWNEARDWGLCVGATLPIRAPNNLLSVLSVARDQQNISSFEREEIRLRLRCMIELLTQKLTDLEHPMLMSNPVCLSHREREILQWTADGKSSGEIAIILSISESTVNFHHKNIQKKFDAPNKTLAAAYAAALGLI", "assay": "RhlR-GFP assay (rhlA-gfp reporter in recombinant E. coli)", "assay_type": "cell-based, P. aeruginosa", "method": "(§1) Methods. The LasR-GFP assays were performed in E. coli strain BL21 DE3 Gold (Agilent) carrying pET23b (Novagen) containing lasR (maintained with 100 μg/mL ampicillin) and carrying plasmid pEVS141 (31) containing the rsaL promoter driving expression of gfp (maintained with […] of kanamycin.) The RhlR-GFP assays were performed in E. coli strain BL21 DE3 Gold (Agilent) carrying pET23b (Novagen) containing rhlR (maintained with 100 μg/mL ampicillin) and carrying plasmid pEVS141 containing the rhlA promoter driving expression of gfp (maintained with 50 μg/mL of kanamycin.) These E. coli strains were grown overnight and subcultured into fresh medium with appropriate antibiotics at a 1:100 dilution and grown shaking for 8 hr at 37° C. for the LasR-GFP strain and 12 hr for the RhlR-GFP construct. 50 nM 3OC12-HSL or 20 μM C4-HSL was added to the LasR-GFP and RhlR-GFP preparations, respectively. Compounds were tested at 1 mM for antagonism and at 100 nM or 20 μM for agonism. These concentrations were chosen for agonism studies to match the concentrations of autoinducers used in the experiments. For antagonism studies, the EC95 concentration was used for each receptor. GFP was measured on an Envision plate reader.\n(§2) The LasR-GFP assays were performed in E. coli strain BL21 DE3 Gold (Agilent) carrying pET23b (Novagen) containing lasR (maintained with 100 μg/mL ampicillin) and carrying plasmid pEVS141 (31) containing the rsaL promoter driving expression of gfp (maintained with 50 μg/mL of kanamycin.) The RhlR-GFP assays were performed in E. coli strain BL21 DE3 Gold (Agilent) carrying pET23b (Novagen) containing rhlR (maintained with 100 μg/mL ampicillin) and carrying plasmid pEVS141 (31) containing the rhlA promoter driving expression of gfp (maintained with 50 μg/mL of kanamycin.) These E. coli strains were grown overnight and subcultured into fresh medium with appropriate antibiotics at a 1:100 dilution and grown shaking for 8 hr at 37° C. for the LasR-GFP strain and 12 hr for the RhlR-GFP construct. 50 nM 3OC12-HSL or 20 μM C4-HSL was added to the LasR-GFP and RhlR-GFP preparations, respectively. Compounds were tested at 1 mM for antagonism and at 100 nM or 20 μM for agonism. These concentrations were chosen for agonism studies to match the concentrations of autoinducers used in our experiments. For antagonism studies, we used the EC95 concentration for each receptor. GFP was measured on an Envision plate reader."}, "LasR": {"target": "T2, LasR (Pseudomonas aeruginosa, UniProt P25084)", "T2 construct": "expressed in transfected cells; host or cells: E. coli BL21-Gold (DE3) carrying pET23b-lasR", "T2 sequence (P25084 whole entry)": "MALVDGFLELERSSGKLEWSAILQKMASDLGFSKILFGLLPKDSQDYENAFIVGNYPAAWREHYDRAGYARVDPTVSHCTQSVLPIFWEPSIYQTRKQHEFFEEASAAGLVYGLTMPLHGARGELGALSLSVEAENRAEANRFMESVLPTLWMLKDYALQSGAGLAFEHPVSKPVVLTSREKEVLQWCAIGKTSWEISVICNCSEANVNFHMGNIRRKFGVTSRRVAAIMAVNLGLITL", "assay": "LasR-GFP assay (rsaL-gfp reporter in recombinant E. coli)", "assay_type": "cell-based, P. aeruginosa", "method": "as §1, §2"}, "P. aeruginosa PA14 [2]": {"system": "P. aeruginosa PA14", "assay": "Growth of P. aeruginosa monitored by absorbance at 600 nm", "assay_type": "cell-based"}, "[3]": {"system": "wild-type P. aeruginosa PA14", "assay": "microbe, parasite or virus in culture", "assay_type": "cell-based", "summary_of_the_method": "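PA14 cultures diluted 1:1000, grown aerobically 17 h at 37° C with shaking with compound at 100 μM (end point) or 200 nM–200 μM (titration). Pyocyanin in filtered cell-free fluid read at 695 nm; efficacy 0% at WT level, 100% at medium background; IC50 from variable-slope sigmoidal fit.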"}, "P. aeruginosa PA14 [4]": {"system": "P. aeruginosa PA14", "assay": "Microfluidic flow cell clogging (time until clogging)", "assay_type": "cell-based", "conditions": "wild-type P. aeruginosa PA14, 100 μM mBTL", "method": "Microfluidic Flow Cells. Methods. Overnight P. aeruginosa PA14 cultures were back-diluted 1:1000 into 800 mL of tryptone broth (1% tryptone in H2O) with or without 100 μM mBTL and grown to mid-logarithmic phase (OD600=0.5). These cultures were used to fill 100 mL reservoirs that fed into microfluidic flow channels via Tygon tubing with an inner diameter of 2.4 mm. Similar tubing connected the outlet of the microfluidic channel to a collection dish on an analytical balance controlled via LabVIEW. The elevation of the culture reservoir above the collection dish on the balance set the constant pressure difference that drove the flow through the microfluidic channel. The microfluidic channel is 200 μm wide, 90 μm high, and contains a sequence of 37 bends that mimic corners in porous materials. The weight of the effluent culture was measured as a function of time t with measurement intervals of 4 s, and the data were converted into a flow rate Q(t) via the equation\n[formula] where Δt=30 s and the density is assumed to be that of water, 1 kg/L. To the resulting flow rate time series Q(t), the function\n[formula] was fitted which yields the measurement of the time until clogging (corresponding to the time at which the flow rate declined to 50% of its baseline value Q0)."}},
  "data": [
    {"substance": "meta-bromothiolactone [mBTL]", "values": [
      {"measurement": "C. elegans death", "setting": "P. aeruginosa PA14 [1]; lasR mutant P. aeruginosa PA14 treated with 50 μM mBTL", "value": 50, "unit": "%"},
      {"measurement": "C. elegans death", "setting": "P. aeruginosa PA14 [1]; wild-type P. aeruginosa PA14 treated with 50 μM mBTL", "value": 23, "unit": "%"},
      {"measurement": "inhibition of RhlR activation of rhlA-gfp (antagonism)", "setting": "RhlR; mBTL at 1 mM, C4-HSL at EC95 (20 μM)", "value": 43, "unit": "%"},
      {"measurement": "RhlR partial agonism (gfp expression, cognate autoinducer = 100%)", "setting": "RhlR; no autoinducer, compound at 20 μM", "value": 80, "unit": "%"},
      {"measurement": "inhibition of LasR activation of rsaL-gfp (antagonism)", "setting": "LasR; mBTL at 1 mM, 3OC12-HSL at EC95", "value": 22, "unit": "%"},
      {"measurement": "LasR partial agonism (gfp expression, cognate autoinducer = 100%)", "setting": "LasR; no autoinducer, compound at 100 nM", "value": 72, "unit": "%"},
      {"measurement": "effect on P. aeruginosa PA14 growth", "setting": "P. aeruginosa PA14 [2]", "value": "not affecting P. aeruginosa PA14 growth"},
      {"measurement": "IC50", "setting": "[3]; WT P. aeruginosa PA14, 17 hr growth, titration, read-out: IC50 for inhibition of pyocyanin production", "value": 8, "unit": "µM"},
      {"measurement": "inhibition of pyocyanin production (in words)", "setting": "[3]; wild-type P. aeruginosa PA14, end point assays at 100 μM", "value": "potent inhibition of pyocyanin"},
      {"measurement": "clogging of microfluidic chambers", "setting": "P. aeruginosa PA14 [4]", "value": "phenotype indistinguishable from the mutants"}
    ]}
  ]
}
